Measured values: patent US10196373B2, “Substituted 2-hydroxy-4-(2-(phenylsulfonamido)acetamido)benzoic acid analogs as inhibitors of STAT protein” (University of Central Florida Research Foundation, Inc., priority 2010, dated 2019)

What was measured:
STAT3 = STAT3 (Homo sapiens (Human), UniProt P40763); experiment: Fluorescence polarization assay, inhibition of binding to STAT3; conditions: inhibition of binding to STAT3 in a fluorescence polarization assay; read-out: Ki (FP)
Procedure: The fluorescent polarization experiments were performed on an Infinite M1000 (Tecan, Crailsheim, Germany). All assays were performed in the same buffer conditions of 50 mM NaCl, 10 mM Hepes, pH 7.5, 1 mM EDTA, and 2 mM dithiothreitol. Fluorescent-labelled peptides were kept at a final concentration of 10nM in buffered solution. […] of labelled peptides were added to […] of a 300 nM STAT3 protein solution (provided by SignalChem in 50 mM Tris-HCl, pH 7.5, 150 mM NaCl, 0.25 mM DTT, 0.1 mM PMSF, 25% glycerol and stored at −80° C.). Inhibitory molecules were dissolved in pure DMSO and diluted using buffer solution to produce four final concentrations ([…]). 7.5 μL of the inhibitory molecule solution was mixed with the STAT3 protein and labelled peptide solution in black 384-flat well microplates (Coming), and incubated for 15-30 minutes. The M1000 performed a shaking cycle and then read the plates. IC50′s were derived from the output using the curve-fitting software OriginPro 8 (Northampton, MA). The FP data was modelled by the following equation:
[formula] where X was the concentration of inhibitor and ρwas the corresponding fluorescence at that concentration. The free parameter was half the maximal inhibitory concentration (IC50) and the limiting values was the maximal measured fluorescence polarization (ρ1) and the minimal fluorescence polarization (ρ2). Origin curve fitting software utilizes the Levenberg-Marquardt algorithm and reduced chi-square criterion for convergence. The inhibitor dissociation constant, Ki, was calculated from the derived IC50 values, as per the following formula: […]
Further details of the fluorescence polarization assay are as described previously (Zhang X, et al. (2010) A novel small-molecule disrupts Stat3 SH2domainphosphotyrosine interactions and Stat3-dependent tumor processes. Biochem Pharmacol 79: 1398-1409).

OCI-AMI.2 cells = experiment: Cell viability, MTS assay; type: cell-based
HL60 cells = experiment: Cell viability, MTS assay; type: cell-based; conditions: Homo sapiens, HL-60, HL60, 72 hours
Procedure: (§1) To further test activity of these molecules, a whole-cell study involving cancer lines with known abherrant STAT3 expression was conducted. These human cell lines, including prostate cancer (DU145), breast cancer (MDA468), and promyelocytic leukemia (HL-60) were treated with the peptidomimetics and incubated for 72 hours. Disruption of cell viability was measured by MTS assay and IC50 values for the potential inhibitors was determined. OriginPro 8 (Northampton, Mass.) was used to evaluate EC50 using the dose response curve defined as follows:
(§2) [formula] where y is the fraction of death, x is the log of drug concentration. A2 is the top asymptote, A1 is the bottom asymptote, logx0 is the center of the curve, and p is the hill slope.

MDA-468 cells = experiment: Cell viability, MTS assay; type: cell-based; conditions: Homo sapiens, MDA-468, 72 hours
Procedure: as §1, §2

DU-145 cells = experiment: Cell viability, MTS assay; type: cell-based; conditions: Homo sapiens, DU-145, 72 hours
Procedure: as §1, §2

Chain of STAT3 (P40763 whole entry): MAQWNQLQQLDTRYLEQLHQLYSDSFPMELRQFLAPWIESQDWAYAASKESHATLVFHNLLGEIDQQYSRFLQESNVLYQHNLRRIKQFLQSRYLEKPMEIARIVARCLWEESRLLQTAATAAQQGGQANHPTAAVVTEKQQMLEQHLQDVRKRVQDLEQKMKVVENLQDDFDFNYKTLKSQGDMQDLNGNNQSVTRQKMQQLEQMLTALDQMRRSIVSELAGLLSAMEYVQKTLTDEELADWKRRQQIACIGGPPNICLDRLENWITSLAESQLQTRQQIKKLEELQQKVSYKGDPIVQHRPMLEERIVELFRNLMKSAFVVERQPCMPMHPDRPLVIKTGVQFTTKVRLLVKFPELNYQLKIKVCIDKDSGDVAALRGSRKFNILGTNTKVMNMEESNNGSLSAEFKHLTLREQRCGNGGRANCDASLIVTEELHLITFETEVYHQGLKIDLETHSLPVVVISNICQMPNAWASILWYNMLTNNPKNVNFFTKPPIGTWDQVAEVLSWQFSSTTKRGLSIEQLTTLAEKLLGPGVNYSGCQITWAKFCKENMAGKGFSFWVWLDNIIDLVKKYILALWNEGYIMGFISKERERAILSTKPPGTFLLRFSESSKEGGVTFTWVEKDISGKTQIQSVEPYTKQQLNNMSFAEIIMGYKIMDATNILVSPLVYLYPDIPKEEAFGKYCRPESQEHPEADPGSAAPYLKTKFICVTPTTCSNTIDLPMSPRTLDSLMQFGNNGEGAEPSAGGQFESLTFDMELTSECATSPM

## Cc1ccc(S(=O)(=O)N(CC(=O)N(Cc2ccc(C3CCCCC3)cc2)c2ccc(C(=O)O)c(O)c2)Cc2ccccc2Cl)cc1 [SH3-079]
STAT3
  Ki: 7.9 ± 0.3 µM

## Cc1ccc(S(=O)(=O)N(CC(N)=O)CC(=O)N(Cc2ccc(C3CCCCC3)cc2)c2ccc(C(=O)O)c(O)c2)cc1 [BP2-124]
STAT3
  Ki: 48.7 ± 14.2 µM

## Cc1ccc(S(=O)(=O)N(CC(=O)N(Cc2ccc(C3CCCCC3)cc2)c2ccc(C(=O)O)c(O)c2)Cc2ccccc2C#N)cc1 [BP3-024]
STAT3
  Ki: 11.3 ± 0.8 µM

## Cc1ccc(S(=O)(=O)N2CCC[C@@H]2C(=O)N(Cc2ccc(C3CCCCC3)cc2)c2ccc(C(=O)O)c(O)c2)cc1 [BP2-032]
STAT3
  Ki: > 50 µM

## Cc1ccc(S(=O)(=O)N(CC(=O)N(Cc2ccc(C3CCCCC3)cc2)c2ccc(C(=O)O)c(O)c2)Cc2ccccn2)cc1 [BP2-131]
STAT3
  Ki: 22.6 ± 3 µM

## Cc1ccc(S(=O)(=O)N(CC(=O)N(Cc2ccc(C3CCCCC3)cc2)c2ccc(C(=O)O)c(O)c2)Cc2cccc(OC(F)(F)F)c2)cc1 [XW1-055]
STAT3
  Ki: 4 ± 1.1 µM

## Cc1ccc(CN(CC(=O)N(Cc2ccc(C3CCCCC3)cc2)c2ccc(C(=O)O)c(O)c2)S(=O)(=O)c2ccc(C)cc2)cc1 [BP2-028]
STAT3
  Ki: > 50 µM

## CN(CC(=O)N(Cc1ccc(C2CCCCC2)cc1)c1ccc(C(=O)O)c(O)c1)S(=O)(=O)c1cn(C)cn1 [Compound 45H, 4-(N-(4-cyclohexylbenzyl)-2-(N,1-dimethyl-1H-imidazole-4-sulfonamido)acetamido)-2-hydroxybenzoic acid]
OCI-AMI.2 cells
  IC50: > 100 µM
HL60 cells
  IC50: > 100 µM
MDA-468 cells
  IC50: > 100 µM
DU-145 cells
  IC50: > 100 µM

## Cc1ccc(S(=O)(=O)N(CC(=O)N(Cc2ccc(C3CCCCC3)cc2)c2ccc(C(=O)O)c(O)c2)Cc2ccc(F)cc2)cc1 [BP2-065]
STAT3
  Ki: 3.8 ± 1.6 µM

## Cc1ccc(S(=O)(=O)N(CC(=O)N(Cc2ccc(C3CCCCC3)cc2)c2ccc(C(=O)O)c(O)c2)Cc2ccccc2C)cc1 [BP2-047]
STAT3
  Ki: 2.6 ± 0.2 µM

## Cc1ccc(S(=O)(=O)N(C)CC(=O)N(Cc2ccc(-c3ccc(-c4cccc(C#N)c4)cc3)cc2)c2ccc(C(=O)O)c(O)c2)cc1 [Compound 27NC]
OCI-AMI.2 cells
  IC50: > 100 µM
HL60 cells
  IC50: 82.8 ± 19 µM
MDA-468 cells
  IC50: 90.5 ± 63.2 µM
DU-145 cells
  IC50: > 100 µM

## Cc1ccc(S(=O)(=O)N(CC(=O)N(Cc2ccc(C3CCCCC3)cc2)c2ccc(C(=O)O)c(O)c2)Cc2cccc(C)c2)cc1 [BP2-056]
STAT3
  Ki: 2.6 ± 0.2 µM

## Cc1ccc(S(=O)(=O)N(CC(=O)N(Cc2ccc(C3CCCCC3)cc2)c2ccc(C(=O)O)c(O)c2)Cc2c(F)c(F)c(F)c(F)c2F)cc1 [BP2-068]
STAT3
  Ki: 4.5 ± 1.9 µM

## Cc1ccc(S(=O)(=O)N(CC(=O)N(Cc2ccc(C3CCCCC3)cc2)c2ccc(C(=O)O)c(O)c2)Cc2cc(F)c(F)c(F)c2F)cc1 [BP2-120]
STAT3
  Ki: 11.1 ± 0.6 µM

## Cc1ccc(S(=O)(=O)N2CCC[C@H]2C(=O)N(Cc2ccc(C3CCCCC3)cc2)c2ccc(C(=O)O)c(O)c2)cc1 [BP2-029]
STAT3
  Ki: 33 ± 22 µM

## Cc1ccc(S(=O)(=O)N(CC(=O)N(Cc2ccc(C3CCCCC3)cc2)c2ccc(C(=O)O)c(O)c2)Cc2ccc(C#N)cc2)cc1 [BP3-021]
STAT3
  Ki: 4.3 ± 0.7 µM

## Cc1ccc(S(=O)(=O)N(CC(=O)N(Cc2ccc(C3CCCCC3)cc2)c2ccc(C(=O)O)c(O)c2)Cc2cccc(Cl)c2)cc1 [SH3-077]
STAT3
  Ki: 3 ± 4.1 µM

## CCOC(=O)c1ccc(CN(CC(=O)N(Cc2ccc(C3CCCCC3)cc2)c2ccc(C(=O)O)c(O)c2)S(=O)(=O)c2ccc(C)cc2)cc1 [XW1-053]
STAT3
  Ki: 3.8 ± 1.5 µM

## Cc1ccc(S(=O)(=O)N(CC(=O)N(Cc2ccc(C3CCCCC3)cc2)c2ccc(C(=O)O)c(O)c2)Cc2ccc(SC(F)(F)F)cc2)cc1 [XW1-057]
STAT3
  Ki: 4.8 ± 0.6 µM

## Cc1ccc(S(=O)(=O)N(CC(=O)N(Cc2ccc(C3CCCCC3)cc2)c2ccc(C(=O)O)c(O)c2)Cc2ccc(C(F)(F)F)cc2)cc1 [XW1-059]
STAT3
  Ki: 4.6 ± 1.6 µM

## Cc1ccc(S(=O)(=O)N(CC(=O)N(Cc2ccc(C3CCCCC3)cc2)c2ccc(C(=O)O)c(O)c2)Cc2ccccc2F)cc1 [BP2-067]
STAT3
  Ki: 5.3 ± 0.3 µM

## C=CCN(CC(=O)N(Cc1ccc(C2CCCCC2)cc1)c1ccc(C(=O)O)c(O)c1)S(=O)(=O)c1ccc(C)cc1 [BP2-125]
STAT3
  Ki: 27.9 ± 5 µM

## Cc1ccc(S(=O)(=O)N(CC(=O)N(Cc2ccc(C3CCCCC3)cc2)c2ccc(C(=O)O)c(O)c2)Cc2c(F)cc(F)c(F)c2F)cc1 [BP2-119]
STAT3
  Ki: 7.7 ± 1 µM

## Cc1ccc(S(=O)(=O)N(CC(=O)N(Cc2ccc(C3CCCCC3)cc2)c2ccc(C(=O)O)c(O)c2)Cc2ccccc2)cc1 [BP2-027]
STAT3
  Ki: 7.2 ± 2.2 µM

## Cc1ccc(S(=O)(=O)N(CC(=O)N(Cc2ccc(C3CCCCC3)cc2)c2ccc(C(=O)O)c(O)c2)Cc2cccc(C#N)c2)cc1 [BP3-023]
STAT3
  Ki: 6.2 ± 0.8 µM

## Cc1ccc(S(=O)(=O)N(CC(=O)N(Cc2ccc(C3CCCCC3)cc2)c2ccc(C(=O)O)c(O)c2)Cc2ccc3ccccc3c2)cc1 [BP2-057]
STAT3
  Ki: 2.5 ± 1 µM

## Cc1ccc(S(=O)(=O)N(CC(=O)N(Cc2ccc(C3CCCCC3)cc2)c2ccc(C(=O)O)c(O)c2)Cc2cccc(N)c2)cc1 [BP3-016]
STAT3
  Ki: 6.2 ± 1.6 µM

## Cc1ccc(S(=O)(=O)N(CC(=O)N(Cc2ccc(C3CCCCC3)cc2)c2ccc(C(=O)O)c(O)c2)Cc2ccc(OC(F)(F)F)cc2)cc1 [XW1-077]
STAT3
  Ki: 5.9 ± 0.6 µM

## Cc1ccc(S(=O)(=O)N(CC(=O)N(Cc2ccc(C3CCCCC3)cc2)c2ccc(C(=O)O)c(O)c2)Cc2ccccc2OC(F)(F)F)cc1 [XW1-061]
STAT3
  Ki: 3.6 ± 0.5 µM

## Cc1ccc(S(=O)(=O)N(CC(=O)N(Cc2ccc(C3CCCCC3)cc2)c2ccc(C(=O)O)c(O)c2)Cc2cccc(C(F)(F)F)c2)cc1 [XW1-079]
STAT3
  Ki: 5.1 ± 0.4 µM

## Cc1ccc(S(=O)(=O)N(CC(=O)N(Cc2ccc(C3CCCCC3)cc2)c2ccc(C(=O)O)c(O)c2)CC(C)C)cc1 [BP2-046]
STAT3
  Ki: 8.3 ± 0.3 µM

## Cc1ccc(S(=O)(=O)N(CC(=O)N(Cc2ccc(C3CCCCC3)cc2)c2ccc(C(=O)O)c(O)c2)Cc2ccncc2)cc1 [BP2-086]
STAT3
  Ki: 23.3 ± 0.7 µM

## Cc1ccc(S(=O)(=O)N(CC(=O)N(Cc2ccc(C3CCCCC3)cc2)c2ccc(C(=O)O)c(O)c2)Cc2ccccc2[N+](=O)[O-])cc1 [BP3-020]
STAT3
  Ki: 5 ± 6.5 µM

## COC(=O)c1cccc(CN(CC(=O)N(Cc2ccc(C3CCCCC3)cc2)c2ccc(C(=O)O)c(O)c2)S(=O)(=O)c2ccc(C)cc2)c1 [XW1-081]
STAT3
  Ki: 9.2 ± 0.8 µM

## Cc1ccc(S(=O)(=O)N(CC(=O)N(Cc2ccc(C3CCCCC3)cc2)c2ccc(C(=O)O)c(O)c2)Cc2ccc(F)cc2C(F)(F)F)cc1 [XW1-075]
STAT3
  Ki: 5.5 ± 0.4 µM

## Cc1ccc(S(=O)(=O)N(CC(=O)N(Cc2ccc(C3CCCCC3)cc2)c2ccc(C(=O)O)c(O)c2)Cc2cccc(F)c2)cc1 [BP2-066]
STAT3
  Ki: 4.4 ± 0.3 µM

## Cc1ccc(S(=O)(=O)N(CC(=O)N(Cc2ccc(C3CCCCC3)cc2)c2ccc(C(=O)O)c(O)c2)Cc2ccccc2C(F)(F)F)cc1 [BP2-061]
STAT3
  Ki: 1.8 ± 2.3 µM

## Cc1ccc(S(=O)(=O)N(CC(=O)N(Cc2ccc(C3CCCCC3)cc2)c2ccc(C(=O)O)c(O)c2)Cc2ccccc2N)cc1 [BP3-018]
STAT3
  Ki: 12 ± 0.5 µM

## Cc1ccc(S(=O)(=O)N(CC(=O)N(Cc2ccc(C3CCCCC3)cc2)c2ccc(C(=O)O)c(O)c2)Cc2cccc([N+](=O)[O-])c2)cc1 [BP3-019]
STAT3
  Ki: 2.5 ± 2.2 µM

## Cc1ccc(S(=O)(=O)N(CC(=O)N(Cc2ccc(C3CCCCC3)cc2)c2ccc(C(=O)O)c(O)c2)Cc2ccc([N+](=O)[O-])cc2)cc1 [BP3-014]
STAT3
  Ki: 5.5 ± 3.7 µM

## CCCN(CC(=O)N(Cc1ccc(C2CCCCC2)cc1)c1ccc(C(=O)O)c(O)c1)S(=O)(=O)c1ccc(C)cc1 [BP2-033]
STAT3
  Ki: 8.9 ± 1.4 µM

## Cc1ccc(S(=O)(=O)N(CC(=O)N(Cc2ccc(C3CCCCC3)cc2)c2ccc(C(=O)O)c(O)c2)Cc2cccnc2)cc1 [BP2-130]
STAT3
  Ki: 25.4 ± 0.8 µM

## Cc1ccc(S(=O)(=O)N(CC(=O)N(Cc2ccc(C3CCCCC3)cc2)c2ccc(C(=O)O)c(O)c2)Cc2ccc(Cl)cc2)cc1 [SH3-076]
STAT3
  Ki: 3.1 ± 0.1 µM

## Cc1ccc(S(=O)(=O)N(CC(=O)N(Cc2ccc(C3CCCCC3)cc2)c2ccc(C(=O)O)c(O)c2)Cc2c(F)c(F)cc(F)c2F)cc1 [BP2-121]
STAT3
  Ki: 11.4 ± 0.4 µM

## COC(=O)c1ccc(CN(CC(=O)N(Cc2ccc(C3CCCCC3)cc2)c2ccc(C(=O)O)c(O)c2)S(=O)(=O)c2ccc(C)cc2)cc1 [XW1-083]
STAT3
  Ki: 5.8 ± 0.6 µM

## Cc1ccc(S(=O)(=O)N(C)CC(=O)N(Cc2ccc(C3CCN(C(=O)OC(C)(C)C)CC3)cc2)c2ccc(C(=O)O)c(O)c2)cc1 [Compound 27KC, 4-(N-(4-(1-(tert-butoxycarbonyl)piperidin-4-yl)benzyl)-2-(N,4-dimethylphenylsulfon-amido)acetamido)-2-hydroxybenzoic acid]
STAT3
  Ki: 18.7 ± 1.4 µM
